Test results as given in publication PMC6346587, “Glucose 6-phosphate dehydrogenase 6-phosphogluconolactonase: characterization of the Plasmodium vivax enzyme and inhibitor studies” (Malaria Journal, 2019).
Several values for one entry are separate records, joined by “and”; a condition that tells them apart may be missing. Equal entries are not always repeated. Where two headings read alike, the source gives them in different places.

Tests used:
P. falciparum Dd2 = system: P. falciparum Dd2; design: method as in PMID 24501782; details: CQ resistant strain; cited from earlier work
[1] = system: cytosolic H2O2 levels of NF54-attB; design: method as in PMID 28874682; details: roGFP2-Orp1 probe, NF54-attB blood stages; cited from earlier work
PfGluPho [2] = target: T1, PfGluPho (Plasmodium falciparum, UniProt Q8IKU0); assay: PfGluPho G6PD activity inhibition assay; type: biochemical
T1 construct: made in house
T1 sequence (Q8IKU0 1-910): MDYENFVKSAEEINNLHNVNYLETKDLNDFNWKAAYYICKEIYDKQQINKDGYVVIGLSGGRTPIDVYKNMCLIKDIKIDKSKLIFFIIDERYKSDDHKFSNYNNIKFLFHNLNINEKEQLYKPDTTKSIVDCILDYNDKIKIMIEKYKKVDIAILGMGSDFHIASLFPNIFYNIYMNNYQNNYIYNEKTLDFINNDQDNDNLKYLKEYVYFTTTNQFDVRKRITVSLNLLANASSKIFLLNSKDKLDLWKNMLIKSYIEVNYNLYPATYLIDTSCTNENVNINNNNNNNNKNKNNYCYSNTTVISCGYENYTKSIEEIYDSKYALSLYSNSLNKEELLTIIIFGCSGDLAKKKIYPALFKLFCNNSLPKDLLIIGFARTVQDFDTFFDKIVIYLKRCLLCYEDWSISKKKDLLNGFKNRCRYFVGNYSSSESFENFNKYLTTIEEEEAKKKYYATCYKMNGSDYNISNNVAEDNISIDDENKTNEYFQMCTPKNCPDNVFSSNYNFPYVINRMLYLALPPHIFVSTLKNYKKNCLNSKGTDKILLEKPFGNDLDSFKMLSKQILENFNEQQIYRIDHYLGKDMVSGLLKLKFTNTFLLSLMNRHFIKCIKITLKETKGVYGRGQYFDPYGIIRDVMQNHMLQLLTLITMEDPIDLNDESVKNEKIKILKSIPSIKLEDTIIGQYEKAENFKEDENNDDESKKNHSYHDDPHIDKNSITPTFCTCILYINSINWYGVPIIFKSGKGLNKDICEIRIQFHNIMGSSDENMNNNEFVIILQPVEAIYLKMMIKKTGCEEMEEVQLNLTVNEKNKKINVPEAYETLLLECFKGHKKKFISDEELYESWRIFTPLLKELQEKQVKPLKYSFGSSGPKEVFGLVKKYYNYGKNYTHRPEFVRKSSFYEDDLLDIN
Experimental: (§1) To identify potential inhibitors of PvG6PD, compounds with already known effects on PfGluPho (ellagic acid and derivatives, ML304) were tested. Additionally, several compound libraries of the Helmholtz Center for Infection Research, Brunswick, were screened against PfGluPho using the high-throughput-compatible assay systems described in Preuss et al.. […] Based on structure-activity relationship studies, a set of new potential G6PD inhibitors (Fig. 8) was then synthesized and assessed. First, the IC50 values of the compounds were determined, followed by mechanistic characterization of the mode of action. To test for selectivity of the compounds, the IC50 values of the compounds on PvG6PD, PfGluPho, and hG6PD were determined in parallel.
(§2) All measurements were performed in 96-well plates, half area (Greiner Bio-One, Frickenhausen, Germany) using a Tecan Infinite M200 plate reader (Maennedorf, Switzerland). The compounds were dissolved in 100% DMSO and afterwards diluted in assay buffer to the required concentrations. Different compound concentrations were added to a mixture of enzyme and NADP^+ in assay buffer. Concentrations of substrates differed depending on the enzyme; an overview is given in the Additional file 4. The reaction was started by adding G6P, and the increase of NADPH was monitored by measuring the absorbance at 340 nm. To increase the sensitivity of the assay, some measurements were reproduced, detecting the fluorescence of NADPH at ex340/em460. […] A negative control containing no compound was defined as 0% inhibition; a positive control lacking the substrate G6P was defined as 100% inhibition. For evaluations using GraphPad Prism and Microsoft Excel, only a linear increase in absorbance/fluorescence was considered. For the mechanistic characterization of the compounds, either NADP^+ or G6P were titrated at different compound concentrations around the IC50, while keeping the second substrate in saturation. The initial slope was plotted as Michaelis–Menten curves and Lineweaver–Burk plots using GraphPad Prism; KM values and Vmax were calculated with GraphPad Prism software.

PfGluPho [3] = target: T1, PfGluPho; details: ML304; read-out: IC50 on PfGluPho; cited from earlier work
hG6PD = target: T2, hG6PD (Homo sapiens, UniProt P11413); details: ML304; read-out: IC50 on human G6PD; cited from earlier work
T2 construct: made in house

PvG6PD = PvG6PD (Plasmodium vivax, UniProt A5K3M1); assay: PvG6PD enzyme inhibition assay (NADPH formation, absorbance 340 nm / fluorescence); type: biochemical; details: for IC50: read-out: IC50 on PvG6PD
Experimental: The G6PD activity of PfGluPho variants was measured spectrophotometrically as described for the wt enzyme. Kinetic characterization of PvG6PD was performed using the same assay system at an Evolution 300 spectrophotometer (Thermo Scientific, Dreieich, Germany). In brief, the initial reduction of NADP^+ to NADPH by PvG6PD was monitored by measuring the absorbance at 340 nm. The 500 µL reaction mixture contained 200 µM NADP^+ and varying concentrations of PvG6PD in an assay buffer of 100 mM Tris–HCl, pH 8.0, 10 mM MgCl2, and 0.5 mM EDTA at 25 °C. The reaction was started by adding 800 µM G6P. The KM for NADP^+ was determined by titrating NADP^+ from 2 to 400 µM at 800 µM G6P; the KM for G6P was measured accordingly by titrating G6P from 2 to 1200 µM at 200 µM NADP^+. KM values were calculated using GraphPad Prism. Since the KM for G6P was considerably higher than the value measured for PfGluPho [14], a concentration of 800 µM G6P was defined as substrate saturation for PvG6PD.
as §1, §2

Plasmodium gametocytes = details: cited from earlier work

Chain of PvG6PD (A5K3M1 entry or part of it): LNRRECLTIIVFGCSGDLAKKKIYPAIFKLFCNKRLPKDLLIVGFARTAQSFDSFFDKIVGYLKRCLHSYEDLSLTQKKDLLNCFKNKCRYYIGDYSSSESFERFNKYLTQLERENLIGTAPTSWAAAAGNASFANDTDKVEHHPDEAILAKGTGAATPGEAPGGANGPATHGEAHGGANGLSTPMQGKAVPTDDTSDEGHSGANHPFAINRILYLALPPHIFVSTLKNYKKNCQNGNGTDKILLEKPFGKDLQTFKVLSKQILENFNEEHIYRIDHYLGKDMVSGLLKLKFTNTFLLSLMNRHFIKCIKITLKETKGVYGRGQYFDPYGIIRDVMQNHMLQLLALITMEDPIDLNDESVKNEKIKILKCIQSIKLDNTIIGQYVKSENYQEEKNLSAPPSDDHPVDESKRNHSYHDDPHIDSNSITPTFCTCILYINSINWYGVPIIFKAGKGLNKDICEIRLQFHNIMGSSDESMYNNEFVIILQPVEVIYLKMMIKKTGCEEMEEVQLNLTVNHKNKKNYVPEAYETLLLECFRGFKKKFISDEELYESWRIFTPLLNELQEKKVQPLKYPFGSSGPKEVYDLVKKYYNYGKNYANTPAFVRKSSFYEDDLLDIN
T2 sequence (P11413 whole entry): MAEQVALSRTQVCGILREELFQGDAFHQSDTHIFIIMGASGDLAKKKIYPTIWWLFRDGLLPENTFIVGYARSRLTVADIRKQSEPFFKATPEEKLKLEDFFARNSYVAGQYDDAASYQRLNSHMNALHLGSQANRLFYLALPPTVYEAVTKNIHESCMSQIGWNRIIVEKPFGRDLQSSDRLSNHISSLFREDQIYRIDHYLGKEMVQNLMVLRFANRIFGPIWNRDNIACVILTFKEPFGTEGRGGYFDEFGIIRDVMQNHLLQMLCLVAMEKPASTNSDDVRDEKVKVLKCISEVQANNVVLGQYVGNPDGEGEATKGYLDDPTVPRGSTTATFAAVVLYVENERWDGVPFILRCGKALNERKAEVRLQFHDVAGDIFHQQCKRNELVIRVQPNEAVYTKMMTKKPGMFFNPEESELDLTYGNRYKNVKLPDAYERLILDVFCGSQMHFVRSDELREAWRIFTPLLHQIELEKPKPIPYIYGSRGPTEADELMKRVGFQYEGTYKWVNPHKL

## CCN1CCC[C@@H]1CNC(=O)c1ccc2c(c1)NC(=O)c1cccc(C)c1S2 [ML304]
P. falciparum Dd2
  Active concentration on P. falciparum Dd2 in cell culture: about 5 µM
[1]
  Effect on cytosolic H2O2 levels: significantly increase
PfGluPho [2]; G6P titrated
  Type of inhibition of PfGluPho towards G6P: competes with G6P
PfGluPho [2]; NADP+ titrated
  Type of inhibition of PfGluPho towards NADP+: non-competitive inhibitor
PfGluPho [2]; competes with G6P, read-out: Ki on PfGluPho towards G6P
  Ki: 230 ± 160 nM
PfGluPho [3]
  IC50: 190 nM
hG6PD
  IC50: 80000 nM and > 80000 nM
PvG6PD; G6P titrated
  Type of inhibition of PvG6PD towards G6P: competitive inhibitor
PvG6PD; NADP+ titrated
  Type of inhibition of PvG6PD towards NADP+: mixed type inhibitor
PvG6PD; competitive towards G6P, read-out: Ki on PvG6PD towards G6P
  Ki: 700 ± 300 nM
PvG6PD; mixed type towards NADP+, read-out: Ki on PvG6PD towards NADP+
  Ki: 16300 ± 8800 nM
PvG6PD; substrate saturation (800 µM G6P, 200 µM NADP+)
  IC50: 15300 ± 900 nM
PvG6PD; substrates close to KM (85 µM G6P, 15 µM NADP+)
  IC50: 2600 ± 800 nM
Plasmodium gametocytes
  Effect on viability of Plasmodium gametocytes: strongly impair the viability
  Interaction with methylene blue on late stage gametocytes: synergistic effects
